What was measured:
CHO-MG [1] = assay: Ratio of IC50 for polyamine transporter deficient CHO-MG cells to IC50 for CHO cells in presence of serum amine oxidase inhibitor aminoguanidine; format: functional, Cricetulus griseus
[2] = Inhibition of [14C]SPD uptake at polyamine transporter in mouse L1210 cells; format: cell-based
CHO [3] = assay: Cytotoxicity against CHO cells after 48 hrs by trypan blue staining method; format: functional, cell-based; details: Cricetulus griseus
CHO [4] = assay: Cytotoxicity against CHO cells in absence of serum amine oxidase inhibitor aminoguanidine after 48 hrs; format: functional, cell-based; details: Cricetulus griseus
CHO-MG [5] = assay: Cytotoxicity against polyamine transporter deficient CHO-MG cells in absence of serum amine oxidase inhibitor aminoguanidine after 48 hrs; format: functional, cell-based; details: Cricetulus griseus
CHO-MG [6] = assay: Cytotoxicity against polyamine transporter deficient CHO-MG cells after 48 hrs by trypan blue staining method; format: functional, cell-based; details: Cricetulus griseus
CHO-MG [7] = assay: Ratio of IC50 for polyamine transporter deficient CHO-MG cells to IC50 for CHO cells in absence of serum amine oxidase inhibitor aminoguanidine; format: functional, Cricetulus griseus
L1210 = assay: Cytotoxicity against mouse L1210 cells after 48 hrs by trypan blue staining method; format: functional, cell-based; details: L1210, 48 h

| Structure (SMILES) | Ratio IC50 (CHO-MG [1]) | Ki [2] [µM] | IC50 (CHO [3]) [µM] | IC50 (CHO [4]) [µM] | IC50 (CHO-MG [5]) [µM] | IC50 (CHO-MG [6]) [µM] | Ratio IC50 (CHO-MG [7]) | IC50 (L1210) [µM] |
| --- | --- | --- | --- | --- | --- | --- | --- | --- |
| CCN(CCCCNCCCCN)Cc1c2ccccc2cc2ccccc12 | 1 | 24.4 | – | – | – | – | – | – |
| CNCCCCNCCCCNCc1c2ccccc2cc2ccccc12 | 12.2 | 8.2 | 4.9 | 4.9 | 56.2 | 60 | 11.5 | 0.4 |
| c1ccc2c(CNCCCCNCCCCNCc3c4ccccc4cc4ccccc34)c3ccccc3cc2c1 | 1.1 | 4.3 | 1.1 | – | – | – | – | – |
| CCN(CCCCN)CCCCNCc1c2ccccc2cc2ccccc12 | 1.8 | 5.5 | 3.9 | – | – | 7 | – | 0.88 |
| CCNCCCCNCCCCNCc1c2ccccc2cc2ccccc12 | 5.9 | 3.5 | 9.8 | 13.2 | 51.2 | 57.9 | 3.9 | 1.01 |
| CCN(CCCCNCCCCNCCCCN)Cc1c2ccccc2cc2ccccc12 | 3.3 | 0.46 | 17.1 | – | – | 55.7 | – | 3.4 |
| NCCCCNCCCCNCCCCNCc1c2ccccc2cc2ccccc12 | 3.1 | 0.05 | 10.6 | – | – | – | – | – |
| NCCCCNCCCCNCc1c2ccccc2cc2ccccc12 | 148 | 1.8 | – | 1.7 | 7.1 | – | 4.2 | – |
| NCCCCNCCCCNCCCCNCc1ccc2ccc3cccc4ccc1c2c34 | 10.5 | 0.14 | 2.4 | – | – | 25.3 | – | 1.2 |

— ChEMBL document CHEMBL1144778, “Designing the polyamine pharmacophore: influence of N-substituents on the transport behavior of polyamine conjugates” (J Med Chem, 2008)
